Counter-ions that a name gives are not always drawn. Like-named read-outs stand apart in the source and are kept apart here.
What was measured:
[1] = target: full-length human PRMT1 isoform 1 (GST-tagged) (Homo sapiens, UniProt Q99873); test: PRMT1 Biochemical Assay (3H-SAM Flashplate, peptide substrate)
Procedure, shortened: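 Tritiated methyl transfer from 3H-SAM onto biotinylated peptide, captured on streptavidin Flashplates and counted. Baculovirus-expressed GST-PRMT1 and compound were preincubated 30 min at room temperature in Bicine buffer pH 7.6. Cold SAM at 300 uM final ended the reaction.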

[2] = target: full-length human PRMT8 isoform 1 (Homo sapiens, UniProt Q9NR22); test: PRMT8 Biochemical Assay (3H-SAM Flashplate, peptide substrate); conditions: read-out: Biochemical IC50 PRMT8
Sequence of full-length human PRMT8 isoform 1 (Q9NR22 whole entry, canonical isoform): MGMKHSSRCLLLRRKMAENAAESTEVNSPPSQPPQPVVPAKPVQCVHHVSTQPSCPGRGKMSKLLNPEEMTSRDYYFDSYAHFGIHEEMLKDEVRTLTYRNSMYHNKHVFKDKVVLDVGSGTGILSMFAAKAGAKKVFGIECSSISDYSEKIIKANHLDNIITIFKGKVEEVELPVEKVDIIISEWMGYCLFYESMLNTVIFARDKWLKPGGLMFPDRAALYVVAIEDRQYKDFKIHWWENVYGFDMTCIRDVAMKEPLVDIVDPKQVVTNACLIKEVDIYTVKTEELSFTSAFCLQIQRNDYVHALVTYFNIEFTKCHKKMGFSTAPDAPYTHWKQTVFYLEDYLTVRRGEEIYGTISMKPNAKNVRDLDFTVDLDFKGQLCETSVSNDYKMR
Procedure, shortened: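 Scintillation Flashplate capture of biotinylated histone H4 (31-45) peptide (150 nM) methylated by 1.5 nM PRMT8 using 3H-SAM (50 nM) with unlabelled SAM (550 nM); enzyme and compound preincubated 30 min, room temperature, in Bicine pH 7.6 buffer with TCEP, BSG, Tween 20 and 2% DMSO. Stopped with excess cold SAM (400 uM); IC50 from % inhibition, min control 1 mM SAH.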

[3] = single experiment or average of multiple experiments

Sequence of full-length human PRMT1 isoform 1 (GST-tagged) (Q99873 with tags, fused parts or gaps): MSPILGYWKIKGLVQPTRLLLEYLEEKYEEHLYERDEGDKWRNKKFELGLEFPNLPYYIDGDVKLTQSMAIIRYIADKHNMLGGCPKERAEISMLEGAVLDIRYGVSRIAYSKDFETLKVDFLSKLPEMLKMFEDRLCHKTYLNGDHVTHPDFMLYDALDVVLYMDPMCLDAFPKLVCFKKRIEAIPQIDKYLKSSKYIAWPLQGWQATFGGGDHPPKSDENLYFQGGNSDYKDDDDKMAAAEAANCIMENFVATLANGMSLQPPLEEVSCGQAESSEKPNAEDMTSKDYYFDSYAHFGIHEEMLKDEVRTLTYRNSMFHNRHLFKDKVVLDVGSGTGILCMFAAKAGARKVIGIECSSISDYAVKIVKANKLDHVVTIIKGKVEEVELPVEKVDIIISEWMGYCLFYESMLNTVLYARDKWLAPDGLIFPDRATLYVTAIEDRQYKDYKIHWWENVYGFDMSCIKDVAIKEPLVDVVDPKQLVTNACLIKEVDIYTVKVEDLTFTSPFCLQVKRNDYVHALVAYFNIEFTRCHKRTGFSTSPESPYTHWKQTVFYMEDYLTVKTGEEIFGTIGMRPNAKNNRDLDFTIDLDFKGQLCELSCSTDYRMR

Compound	IC50 [1] [nM]	IC50 [1, 3] [nM]	IC50 [2] [nM]	IC50 [2, 3] [nM]
CNCCN(C)Cc1cn(C)nc1[C@H]1CC[C@]2(CC1)CC(C)(C)CO2 [Compound 206, Methyl([1-methyl-3-[(5R,8S)-3,3-dimethyl-1-oxaspiro[4.5]decan-8-yl]-1H-pyrazol-4-yl]methyl)[2-(methylamino)ethyl]amine hydrochloride]	< 100	19.5	< 100	28.9
CN(CCN)Cc1c[nH]nc1[C@H]1CC[C@@]2(CC1)CC(C)(C)CO2 [Compound 207]	< 100		< 100	
CN(CCN)Cc1c[nH]nc1[C@H]1CC[C@]2(CC1)CC(C)(C)CO2 [Compound 208]	< 100	6.94	< 100	12.8
CNCCN(C)Cc1c[nH]nc1[C@H]1CC[C@H](C(=O)N(C)CCC(C)C)CC1 [Compound 209]	< 100	27.8	< 100	43.9
CNCCN(C)Cc1c[nH]nc1[C@H]1CC[C@@H](C(=O)N(C)CCC(C)C)CC1 [Compound 210]	< 100	13.1	< 100	22.9
CNCCN(C)Cc1c[nH]nc1[C@H]1CC[C@H](C(=O)NCCOc2ccccc2)CC1 [Compound 211]	< 100	8.28	< 100	10
CNCCN(C)Cc1c[nH]nc1[C@H]1CC[C@@H](C(=O)NCCOc2ccccc2)CC1 [Compound 212]	< 100	5.57	< 100	8.28
CNCCN(C)Cc1c[nH]nc1[C@H]1CC[C@H](C(=O)N(CCCOC)CCC(C)C)CC1 [Compound 213]	< 100	53.9	101 to 1000	165
CNCCN(C)Cc1c[nH]nc1[C@H]1CC[C@@H](C(=O)N(CCCOC)CCC(C)C)CC1 [Compound 214]	< 100	19.8	< 100	27.4
CNCCN(C)Cc1c[nH]nc1[C@H]1CC[C@@H](C(=O)N(C)CC(C)C)CC1 [Compound 215]	< 100	14.1	< 100	23
CNCCN(C)Cc1c[nH]nc1C1CCC(F)(F)CC1 [Compound 216]	< 100	12.1	< 100	17.8
CNCCN(C)Cc1c[nH]nc1[C@H]1CC[C@@H](O)CC1 [Compound 217, 4-[4-([methyl[2-(methylamino)ethyl]amino]methyl)-1H-pyrazol-3-yl]cyclohexan-1-ol trifluoroacetate]	< 100	30.2	< 100	59.5
CNCCN(C)Cc1c[nH]nc1[C@H]1CC[C@@H](N(CCOc2ccccc2)C(=O)CCOC)CC1 [Compound 218]	< 100	41.7	< 100	67
CNCCN(C)Cc1c[nH]nc1[C@H]1CC[C@H](N(CCOc2ccccc2)C(=O)CCOC)CC1 [Compound 219]	< 100	8.96	< 100	15
CCC(=O)N(CCOc1ccccc1)[C@H]1CC[C@@H](c2n[nH]cc2CN(C)CCNC)CC1 [Compound 220]	< 100	9.29	< 100	12.9
CCC(=O)N(CCOc1ccccc1)[C@H]1CC[C@H](c2n[nH]cc2CN(C)CCNC)CC1 [Compound 221]	< 100	6.44	< 100	15.4
CNCCN(C)Cc1c[nH]nc1[C@H]1CC[C@@H](N(CCOc2ccccc2)C(=O)CC(C)C)CC1 [Compound 222]	< 100	43	< 100	90
CNCCN(C)Cc1c[nH]nc1[C@H]1CC[C@H](N(CCOc2ccccc2)C(=O)CC(C)C)CC1 [Compound 223]	< 100	6.65	< 100	8.65
CCN(C(=O)CCOc1ccccc1)[C@H]1CC[C@@H](c2n[nH]cc2CN(C)CCNC)CC1 [Compound 224]	< 100	9.27	< 100	10.2
CCN(C(=O)CCOc1ccccc1)[C@H]1CC[C@H](c2n[nH]cc2CN(C)CCNC)CC1 [Compound 225]	< 100	7.62	< 100	13.9
CNCCN(C)Cc1c[nH]nc1[C@H]1CC[C@H](C(=O)N(C)CC(C)C)CC1 [Compound 226]	< 100	33.1	< 100	57.6
CNCCN(C)Cc1c[nH]nc1[C@H]1CC[C@H](O)CC1 [Compound 227, 4-[4-([methyl[2-(methylamino)ethyl]amino]methyl)-1H-pyrazol-3-yl]cyclohexan-1-ol trifluoroacetate]	< 100	16.8	< 100	35.8
CNCCN(C)Cc1c[nH]nc1[C@H]1CC[C@@H](N(CCOc2ccccc2)C(=O)CCCOC)CC1 [Compound 228]	< 100	69	< 100	100

Continued, values first:

IC50 [1] [nM]	IC50 [1, 3] [nM]	IC50 [2] [nM]	IC50 [2, 3] [nM]	Compound
< 100	10.8	< 100	16	CNCCN(C)Cc1c[nH]nc1[C@H]1CC[C@H](N(CCOc2ccccc2)C(=O)CCCOC)CC1 [Compound 229]
< 100	13.5	< 100	25.7	CNCCN(C)Cc1c[nH]nc1[C@H]1CC[C@H](N(CCOC)C(=O)CCOc2ccccc2)CC1 [Compound 230]
< 100	6.49	< 100	9.32	CNCCN(C)Cc1c[nH]nc1[C@H]1CC[C@@H](N(CC(C)C)C(=O)CCOc2ccccc2)CC1 [Compound 231]
< 100	9.11	< 100	21	CNCCN(C)Cc1c[nH]nc1[C@H]1CC[C@H](N(CC(C)C)C(=O)CCOc2ccccc2)CC1 [Compound 232]
< 100	20.7	< 100	42.7	CNCCN(C)Cc1c[nH]nc1[C@H]1CC[C@@H](N(CC(C)C)C(=O)CCOC)CC1 [Compound 233]
< 100	16.1	< 100	42.8	CNCCN(C)Cc1c[nH]nc1[C@H]1CC[C@H](N(CC(C)C)C(=O)CCOC)CC1 [Compound 234]
< 100	25.7	< 100	44	CNCCN(C)Cc1c[nH]nc1[C@H]1CC[C@@H](N(CCC(C)C)C(=O)CCOC)CC1 [Compound 235]
< 100	29	< 100	57.8	CNCCN(C)Cc1c[nH]nc1[C@H]1CC[C@H](N(CCC(C)C)C(=O)CCOC)CC1 [Compound 236]
< 100	42.2	< 100	83.3	CNCCN(C)Cc1c[nH]nc1[C@H]1CC[C@@H](N(CCC(C)C)C(=O)CCCOC)CC1 [Compound 237]
< 100	29.6	< 100	80.1	CNCCN(C)Cc1c[nH]nc1[C@H]1CC[C@H](N(CCC(C)C)C(=O)CCCOC)CC1 [Compound 238]
< 100	6.55	< 100	13.2	CCN(C(=O)CC(C)C)[C@H]1CC[C@H](c2n[nH]cc2CN(C)CCNC)CC1 [Compound 239]
< 100	6.1	< 100	10.9	CCN(C(=O)CC(C)C)[C@H]1CC[C@@H](c2n[nH]cc2CN(C)CCNC)CC1 [Compound 240]
< 100	22.4	< 100	48.9	CNCCN(C)Cc1c[nH]nc1[C@H]1CC[C@H](N(CCCOC)C(=O)CC(C)C)CC1 [Compound 241]
< 100	28.3	< 100	83.7	CNCCN(C)Cc1c[nH]nc1[C@H]1CC[C@@H](N(CCCOC)C(=O)CC(C)C)CC1 [Compound 242]
< 100	32.4	< 100	70.8	CNCCN(C)Cc1c[nH]nc1[C@H]1CC[C@H](N(CCCOC)C(=O)CCC(C)C)CC1 [Compound 243]
< 100	39.8	101 to 1000	113	CNCCN(C)Cc1c[nH]nc1[C@H]1CC[C@@H](N(CCCOC)C(=O)CCC(C)C)CC1 [Compound 244]
< 100	18.5	< 100	18.3	CNCCN(C)Cc1cnn(C)c1[C@H]1CC[C@@]2(CC1)CC(C)(C)CO2 [Compound 245, Methyl ([2-[methyl([1-methyl-5-[(5S,8S)-3,3-dimethyl-1-oxaspiro[4.5]decan-8-yl]-1H-pyrazol-4-yl]methyl)amino]ethyl])amine trifluoroacetic acid salt]
< 100	12.6	< 100	23.8	CNCCN(C)Cc1c[nH]nc1[C@H]1CC[C@@H](N(CCCOC)C(=O)CCOc2ccccc2)CC1 [Compound 246]
< 100	11.1	< 100	16.4	CNCCN(C)Cc1c[nH]nc1[C@H]1CC[C@H](N(CCCOC)C(=O)CCOc2ccccc2)CC1 [Compound 247]
< 100	13.2	< 100	28.2	CNCCN(C)Cc1c[nH]nc1[C@H]1CC[C@H](N(CC(C)C)C(=O)CCCOC)CC1 [Compound 248]

— patent US11512053B2, “Arginine methyltransferase inhibitors and uses thereof” (priority 2013, dated 2022)
